Among the data in patent publication US3931174A, “Alkylmercaptomethylquinoxaline-1,4-dioxides and oxidized derivatives thereof” (Pfizer Inc., priority 1974, dated 1976) are responders and MIC values, retold here.

Structures are written as SMILES. Values after ≈ are worked out from the molar mass of the structure shown.

For test [1], the system named is Escherichia coli. Description: In vivo survivors (SC route), E. coli infection. To be noted: SC route (subcutaneous); for responders at 100 mg/kg: 100 mg./kg. (footnote b). The source says: (§1) The in vitro and in vivo activities of compounds within this invention versus Streptococcus pyogenes and Escherichia coli are presented below: ##SPC4##
Test [2] concerns Escherichia coli. Description: In vitro MIC, anaerobic agar dilution, E. coli. In kind it is cell-based. To be noted: brain-heart infusion agar, 37°C. Here is the method:
(§2) The in vitro activities are determined under anaerobic conditions in the following manner. Appropriate serial two-fold dilutions of the compounds are mixed with molten brain-heart infusion agar in sterile petri dishes and allowed to solidify. The bacterial cells (approximately 10^5 -10^6 cells) are placed on the top of the agar plate with a Steers replicating device. The plates are incubated at 37°C. in the anaerobic conditions achieved by a Gas Pak (BBL, Cockeysville, […].). The M.I.C. […] The in vitro and in vivo activities of compounds within this invention versus Streptococcus pyogenes and Escherichia coli are presented below: ##SPC4##
A general note: Agar dilution tests growth on a series of plates holding different concentrations.

The test system of test [3] is Streptococcus pyogenes. Description: In vivo survivors (SC route), Strep. pyogenes infection. To be noted: SC route (subcutaneous); for responders at 100 mg/kg: 100 mg./kg. (footnote b).
Text: as §1

The test system of test [4] is Streptococcus pyogenes. Description: In vitro MIC, anaerobic agar dilution, Strep. pyogenes. In kind it is cell-based. Particulars: brain-heart infusion agar, 37°C. Here is the method: as §2

The MIC is the lowest concentration that inhibits growth of the organism. A low value points to greater potency. `Cc1c(C[S+](C)[O-])[n+]([O-])c2ccccc2[n+]1[O-]` (centres unmarked) [CH3 SO--CH3, 2-methyl-3-methylsulfinylmethylquinoxaline 1,4-dioxide]: the responders at 25 mg/kg in the test on Escherichia coli [1] is 10%. The MIC was > 200 µg/mL in the test on Escherichia coli [2] and 25 µg/mL (≈ 99.1 µM) against Streptococcus pyogenes [4]. In addition, the responders at 50 mg/kg in the test with Streptococcus pyogenes [3] was found to be 20%.
Compound `CS(=O)(=O)Cc1c[n+]([O-])c2ccccc2[n+]1[O-]` [H SO2 --CH3, 2-Methylsulfonylmethylquinoxaline 1,4-Dioxide] gave a responders at 25 mg/kg in the test on Escherichia coli [1] of 100%. Also, the MIC in the test with Escherichia coli [2] and in the test with Streptococcus pyogenes [4] was < 0.391 µg/mL in each case. Besides, in the test with Streptococcus pyogenes [3], the responders at 50 mg/kg is 90%.
`CCCSCc1c[n+]([O-])c2ccccc2[n+]1[O-]` [H S--CH2 CH2 CH3, 2-n-propylthiomethylquinoxaline 1,4-dioxide] gave a responders at 25 mg/kg in the test with Escherichia coli [1] of 60%. Moreover, the MIC in the test on Escherichia coli [2] and with Streptococcus pyogenes [4] was 50 µg/mL (≈ 200 µM) each time. The compound further showed a responders at 50 mg/kg in the test on Streptococcus pyogenes [3] of 0%.
In the case of `CSCc1c[n+]([O-])c2ccccc2[n+]1[O-]` [H S--CH3, 2-methylthiomethylquinoxaline 1,4-dioxide], the responders at 100 mg/kg with Escherichia coli [1] stood at 70%; with Streptococcus pyogenes [3] it was 50%. Moreover, the MIC in the test on Escherichia coli [2] and with Streptococcus pyogenes [4] was 1.56 µg/mL (≈ 7.03 µM) in each case.
As for `CC(C)S(=O)(=O)Cc1c[n+]([O-])c2ccccc2[n+]1[O-]` [H SO2 --CH(CH3)2], in the test with Escherichia coli [1], the responders at 25 mg/kg was determined as 90%. In addition, the MIC against Escherichia coli [2] turned out to be 0.781 µg/mL (≈ 2.77 µM); in the test on Streptococcus pyogenes [4], 1.56 µg/mL (≈ 5.53 µM). Besides, in the test with Streptococcus pyogenes [3], the responders at 50 mg/kg was 100%.
In the test on Escherichia coli [1], `CC[S+]([O-])Cc1c[n+]([O-])c2ccccc2[n+]1[O-]` (centres unmarked) [H SO--CH2 CH3, 2-Ethylsulfinylmethylquinoxaline 1,4-Dioxide] registered a responders at 25 mg/kg of 90%. Moreover, the MIC with Escherichia coli [2] is 3.12 µg/mL (≈ 12.4 µM); against Streptococcus pyogenes [4], 0.781 µg/mL (≈ 3.1 µM). The compound also yielded a responders at 50 mg/kg in the test on Streptococcus pyogenes [3] of 20%.
`CCCS(=O)(=O)Cc1c[n+]([O-])c2ccccc2[n+]1[O-]` [H SO2 --CH2 CH2 CH3]: in the test on Escherichia coli [1], the responders at 25 mg/kg amounted to 90%. For the same compound, the results for the MIC in the test with Escherichia coli [2] and with Streptococcus pyogenes [4] were 25 µg/mL (≈ 88.6 µM) and 3.12 µg/mL (≈ 11.1 µM), respectively. Further, in the test on Streptococcus pyogenes [3], the responders at 50 mg/kg is 90%.
Turning to `C[S+]([O-])Cc1c[n+]([O-])c2ccccc2[n+]1[O-]` (centres unmarked) [H SO--CH3, 2-Methylsulfinylmethylquinoxaline 1,4-Dioxide], the responders at 100 mg/kg in the test with Escherichia coli [1] was 100%; in the test with Streptococcus pyogenes [3] it was 30%. The MIC with Escherichia coli [2] and in the test on Streptococcus pyogenes [4] was < 0.391 µg/mL each time.
In the test on Escherichia coli [1], `Cc1c(CS(C)(=O)=O)[n+]([O-])c2ccccc2[n+]1[O-]` [CH3 SO2 --CH3] gave a responders at 25 mg/kg of 70%. Besides, the MIC in the test with Escherichia coli [2] is 3.12 µg/mL (≈ 11.6 µM); in the test with Streptococcus pyogenes [4], 1.56 µg/mL (≈ 5.82 µM). The responders at 50 mg/kg in the test with Streptococcus pyogenes [3] is 10%.
For `CCC[S+]([O-])Cc1c[n+]([O-])c2ccccc2[n+]1[O-]` (centres unmarked) [H SO--CH2 CH2 CH3, 2-n-propylsulfinylmethylquinoxaline 1,4-dioxide] the same measures were 50%, 6.25 µg/mL (≈ 23.5 µM), 1.56 µg/mL (≈ 5.87 µM) and 60%.
In turn, `CCS(=O)(=O)Cc1c[n+]([O-])c2ccccc2[n+]1[O-]` [H SO2 --CH2 CH3, 2-Ethylsulfonylmethylquinoxaline-1,4-Dioxide] gave a responders at 25 mg/kg with Escherichia coli [1] of 100%. Also, the MIC in the test on Escherichia coli [2] and in the test on Streptococcus pyogenes [4] was < 0.391 µg/mL each time. Moreover, in the test with Streptococcus pyogenes [3], the responders at 50 mg/kg amounted to 100%.
